# Measurements from patent US8987315B2, “Metalloenzyme inhibitor compounds” (Innocrin Pharmaceuticals, Inc., priority 2009, dated 2015).
# Experiments:
# [1] = molecular target: CYP2C9 (Homo sapiens (Human), UniProt P11712); assay: Inhibition of liver cytochrome P450 enzymes (human liver microsomes), CYP2C9
# [2] = molecular target: CYP17 (Rattus norvegicus (Rat), UniProt P11715); assay: Inhibition of CYP17 (rat testicular microsomes); type: biochemical; settings: pooled rat testicular microsomes
# [3] = molecular target: CYP2C19 (Homo sapiens (Human), UniProt P33261); assay: Inhibition of liver cytochrome P450 enzymes (human liver microsomes), CYP2C19
# [4] = molecular target: CYP3A4 (Homo sapiens (Human), UniProt P08684); assay: Inhibition of liver cytochrome P450 enzymes (human liver microsomes), CYP3A4
# Sequence of CYP3A4 (P08684 whole entry): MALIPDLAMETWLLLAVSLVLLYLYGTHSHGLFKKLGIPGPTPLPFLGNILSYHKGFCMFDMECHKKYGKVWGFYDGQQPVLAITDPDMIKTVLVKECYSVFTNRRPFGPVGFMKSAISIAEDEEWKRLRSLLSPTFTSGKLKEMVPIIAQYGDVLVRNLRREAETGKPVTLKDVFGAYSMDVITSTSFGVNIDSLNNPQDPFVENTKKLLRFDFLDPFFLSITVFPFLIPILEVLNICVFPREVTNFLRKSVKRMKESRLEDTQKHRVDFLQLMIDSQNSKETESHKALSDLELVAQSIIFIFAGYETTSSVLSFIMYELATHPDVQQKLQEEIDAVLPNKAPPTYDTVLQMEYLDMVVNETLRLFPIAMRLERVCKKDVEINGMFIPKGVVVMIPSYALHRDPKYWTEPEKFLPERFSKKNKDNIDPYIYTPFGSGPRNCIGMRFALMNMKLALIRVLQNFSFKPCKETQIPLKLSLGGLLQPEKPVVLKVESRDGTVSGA
# Sequence of CYP17 (P11715 whole entry): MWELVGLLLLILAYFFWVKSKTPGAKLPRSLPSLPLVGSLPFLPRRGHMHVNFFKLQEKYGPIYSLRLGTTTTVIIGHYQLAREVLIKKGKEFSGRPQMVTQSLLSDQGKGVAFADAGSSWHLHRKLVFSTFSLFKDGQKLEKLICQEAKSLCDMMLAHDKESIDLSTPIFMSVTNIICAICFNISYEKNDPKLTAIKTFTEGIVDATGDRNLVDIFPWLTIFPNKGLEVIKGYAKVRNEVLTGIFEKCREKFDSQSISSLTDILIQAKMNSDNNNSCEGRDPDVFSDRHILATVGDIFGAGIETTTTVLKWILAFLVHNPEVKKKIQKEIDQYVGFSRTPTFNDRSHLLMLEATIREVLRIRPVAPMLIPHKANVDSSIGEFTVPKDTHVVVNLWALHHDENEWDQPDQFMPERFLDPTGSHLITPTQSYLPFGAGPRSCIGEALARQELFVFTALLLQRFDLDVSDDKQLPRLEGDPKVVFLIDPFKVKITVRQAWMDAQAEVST
# Sequence of CYP2C19 (P33261 whole entry): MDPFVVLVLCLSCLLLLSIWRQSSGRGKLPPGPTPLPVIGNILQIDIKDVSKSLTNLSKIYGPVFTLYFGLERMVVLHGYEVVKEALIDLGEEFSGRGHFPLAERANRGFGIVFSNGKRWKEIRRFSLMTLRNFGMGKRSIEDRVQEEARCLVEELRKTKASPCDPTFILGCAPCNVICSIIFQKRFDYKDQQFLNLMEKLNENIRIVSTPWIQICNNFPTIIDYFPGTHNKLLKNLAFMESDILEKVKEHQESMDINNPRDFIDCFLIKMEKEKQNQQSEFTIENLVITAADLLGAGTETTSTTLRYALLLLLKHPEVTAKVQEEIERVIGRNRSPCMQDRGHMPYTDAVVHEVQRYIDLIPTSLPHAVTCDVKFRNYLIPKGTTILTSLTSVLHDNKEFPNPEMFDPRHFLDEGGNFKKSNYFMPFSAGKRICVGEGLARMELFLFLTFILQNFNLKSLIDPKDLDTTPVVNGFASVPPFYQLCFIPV
# Sequence of CYP2C9 (P11712 whole entry): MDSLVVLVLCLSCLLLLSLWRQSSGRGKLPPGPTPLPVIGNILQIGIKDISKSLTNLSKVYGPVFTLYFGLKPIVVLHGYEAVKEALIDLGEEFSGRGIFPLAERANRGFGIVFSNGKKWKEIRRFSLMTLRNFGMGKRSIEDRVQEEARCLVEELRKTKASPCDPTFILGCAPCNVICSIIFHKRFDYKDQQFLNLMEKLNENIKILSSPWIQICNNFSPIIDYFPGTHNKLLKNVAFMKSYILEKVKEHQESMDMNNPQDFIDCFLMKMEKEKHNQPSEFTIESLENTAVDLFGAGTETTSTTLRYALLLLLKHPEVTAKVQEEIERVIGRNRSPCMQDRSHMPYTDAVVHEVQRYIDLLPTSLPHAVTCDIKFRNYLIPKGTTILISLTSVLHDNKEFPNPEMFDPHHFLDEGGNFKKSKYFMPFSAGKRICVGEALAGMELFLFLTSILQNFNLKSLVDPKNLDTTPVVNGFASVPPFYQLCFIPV
Structure (SMILES),IC50 [1],IC50 [2],IC50 [3],IC50 [4]
"CC(C)C(c1ccc2cc(OC(F)F)c(OC(F)F)cc2c1)n1ncnn1 (centres unmarked) [Example 1, 2-(1-(6,7-bis(difluoromethoxy)naphthalen-2-yl)-2-methylpropyl)-2H-tetrazole]",7 µM,0.4 µM,37 µM,> 200 µM
"CC(C)C(c1ccc2cc(OCC(F)(F)F)ccc2c1)n1ncnn1 (centres unmarked) [Example 2, 2-(2-Methyl-1-(6-(2,2,2-trifluoroethoxy)naphthalen-2-yl)propyl)-2H-tetrazole]",27 µM,0.46 µM,45 µM,
"COc1cc2ccc(C(C(C)C)n3ncnn3)cc2cc1OC (centres unmarked) [Example 3, 2-(1-(6,7-Dimethoxynaphthalen-2-yl)-2-methylpropyl)-2H-tetrazole]",4.8 µM,0.27 µM,30 µM,> 200 µM
"CC(C)C(c1ccc2cc(OC(F)F)ccc2c1)n1ncnn1 (centres unmarked) [Example 4, 2-(1-(6-(difluoromethoxy)naphthalen-2-yl)-2-methylpropyl)-2H-tetrazole]",15 µM,0.21 µM,35 µM,
